Laboratory results reported in US20210267886A1, “Gel-In-Oil Emulsion and Transdermally Absorbed Agent” (Nippon Shokubai Co., Ltd., priority 2018, published 2021).

System: L929 cell-embedded collagen gel (cultured dermis model)
Assay: Titer evaluation using cultured dermis model (quantification of DNA)
Type: cell-based
Procedure: Ultrapure water was added to a collagen made of pig skin (manufactured by NH Foods Ltd.), and the obtained mixture was stirred overnight at 4° C. to prepare a 1% collagen solution. A L929 cell suspension (obtained by collecting cultured L929 cells and suspending the collected L929 cells in a culture medium) (6×10^5 cells) was centrifuged at 1000 rpm for 3 minutes, and the supernatant was removed by suction. A 20% fetal bovine serum (Fetal Bovine Serum, manufactured by FBS bio sera) was added to a Dulbecco's Modified Eagle Medium (DMEM) (manufactured by Thermo Fisher Scientific Inc.) prepared at a concentration of twice to prepare a 2-fold concentrated DMEM culture medium. L929 cells were suspended in a solution in which the 1% collagen solution and the 2-fold concentrated DMEM culture medium were mixed at a ratio of 1:1. This suspension was added to a 12-well plate at 1 ml/well, and was left to stand in an incubator for 1 hour to allow the suspension to turn into a gel.
A ring made of polycarbonate (outer diameter: 1.4 cm, inner diameter: 1.2 cm, and height: 0.3 cm) was placed on a L929 cell-embedded collagen gel (cultured dermis model) prepared in Synthesis Example 1. 200 μl of the bFGF-containing G/O emulsion described above was added to the inside the ring. 200 μl of DMEM culture medium was added to the outside of the ring, and the gel was placed in an incubator. The culture medium was changed every day, and the amounts of DNA in the L929 cell-embedded collagen gel after 1 day, 3 days, and 5 days were quantified. The quantification of DNA was performed as follows.
A liquid in which 1 ml of 0.25% collagenase solution (manufactured by Wako Pure Chemical Industries, Ltd.) was added to a L929 cell-embedded collagen gel was referred to as liquid E. A liquid in which a gel was dissolved by shaking the gel at 37° C. for around 1 hour was referred to as liquid F. Each sample was centrifuged at 1000 rpm for 3 minutes, and the supernatant was removed by suction. Triton X-100 (manufactured by Sigma) was added to the above-described PBS to prepare 0.1% Triton X-100-containing PBS, and the sample was suspended in 1 ml of the 0.1% Triton X-100-containing PBS. The obtained suspension was frozen at −80° C., and then thawed at room temperature. This operation was repeated 3 times. 180 μl of Hoechst (Hoechst (registered trademark), manufactured by Thermo Fisher Scientific K.K.) was mixed with 20 μl of sample, and the obtained mixture was added in a 96-well black plate. By using Fluorescent DNA Quantitation Kit Cat. #170-2480 (BIO-RAD), the quantification of DNA was performed with fluorescent brightness measurement under the conditions of an excitation filter of 355 nm and an absorption filter of 460 nm. The fluorescent brightness was measured 3 times, and the average was taken to obtain the amount of DNA. The quantification of DNA was performed before the start of the test (0 day), and 1 day, 3 days, 5 days, and 7 days after the start of the test.

Comparative Example 3: bFGF (basic fibroblast growth factor) used as it was
Amount of DNA (0 Day (before the start of the test)): 43 ng | Amount of DNA (After 1 day, 200 μl sample): 74 ng | Amount of DNA (After 3 days, 200 μl sample): 145 ng | Amount of DNA (After 5 days, 200 μl sample): 187 ng | Amount of DNA (After 7 days, 200 μl sample): 192 ng
